Laboratory results published in US20160257651A1, “NOVEL COMPOUND WITH ANTIBACTERIAL ACTIVITY” (priority 2013, published 2016).
≈ marks a conversion by molar mass, not a printed value. Read-outs that look alike come from different tables or passages of the source.

Assays:
[1] = tested on: S. aureus FDA209P (ATCC 6538P); assay: microbe, parasite or virus in culture; assay type: cell-based, Staphylococcus aureus; details: quinolone-susceptible MSSA, ParC 80S, GyrA 84S
Protocol: (§1) Then, the cell suspension was diluted 500 times with CAMHB mentioned above.

S. aureus Mu50 = assay: microbe, parasite or virus in culture; assay type: cell-based, Staphylococcus aureus; details: for MIC ratio (Mu50 MIC/FDA209P MIC): MIC for S. aureus Mu50 / MIC for S. aureus FDA209P; for MIC: S. aureus Mu50, quinolone-resistant MRSA, ParC S80F, GyrA S84L
Protocol: as §1

E. coli strain 1708 = assay: Antibacterial activity against Escherichia coli
Source text: (§9) The numerical values in the tables indicate MIC (mg/L), Res means resistant bacterium, and Sus means susceptible bacterium.
(§10) Antibacterial activities against Escherichia coli of the compounds shown Table 19 were examined by the following method.
(§11) After completion of the culture, the cells were suspended in fresh TBS to prepare a cell suspension showing an absorbance of 0.3 at 578 nm.

E. coli strain 1709 = assay: Antibacterial activity against Escherichia coli
Source text: as §9, §10, §11

E. faecalis 36-15722 = assay: MIC against Enterococcus bacteria; assay type: cell-based, Enterococcus faecalis; details: Enterococcus faecalis, 3615722; E. faecalis 36-15722, quinolone-resistant; ParC 80Ile, GyrA 84Ile; read-out: MIC
Protocol: (§2) Antibacterial activities of the compound J-131CP against Enterococcus bacteria (Enterococcus faecium and Enterococcus faecalis) were examined by the following methods.
(§3) The compound J-131CP and quinolones were prepared in the same manner as that of Test Example 1-1.
(§4) Cell suspensions were prepared in the same manner as that of Test Example 1-1 described in the section of measurement of MIC in Test Example 1-1, except that the Enterococcus bacterium strains mentioned in Table 8 were used instead of Staphylococcus aureus, and MICs of the compound J-131CP and quinolones as control were determined for the strains in the same manner as that of Test Example 1-1 described in the section of measurement of MIC in Test Example 1-1. In Table 8, the amino acid substitution mutations in QRDR of the strains are underlined.

E. faecalis NCTC12201 = assay: MIC against Enterococcus bacteria; assay type: cell-based; details: Enterococcus faecalis, NCTC 12201 / VRE, quinolone-susceptible
Protocol: as §2, §3, §4

S. pneumoniae BCLSP37 = assay: MIC against pneumococcus, CAMHB with 5 mass % LHB; assay type: cell-based, Streptococcus pneumoniae; details: Streptococcus pneumoniae, BCLSP37, S. pneumoniae BCLSP37, PSSP, quinolone-resistant; ParC 79Phe, GyrA 85Lys; read-out: MIC
Protocol: (§5) The S. pneumoniae strains used for this test belong to any one of the categories of penicillin-susceptible pneumococcus (penicillin-susceptible Streptococcus pneumoniae, PSSP), penicillin-intermediate pneumococcus (penicillin-intermediate Streptococcus pneumoniae, PISP), and penicillin-resistant pneumococcus (penicillin-resistant Streptococcus pneumoniae, PRSP).
(§6) The lysed horse blood was prepared by adding sterilized water to horse sterile defibered blood (produced by Nippon Bio-Supp. Center) at a ratio of 1:1, subjecting the mixture to freezing and thawing 5 times, then centrifuging the mixture twice at 10,000 rpm for 20 minutes, and filtering the supernatant through a filter.
(§7) The S. pneumoniae strains mentioned in Table 11 were each cultured overnight at 37° C. on a blood agar medium as stationary culture. The blood agar medium was prepared by adding 5 mass % ovine sterile defibered blood (produced by Nippon Bio-Supp. Center) to a heart infusion agar medium (produced by EIKEN CHEMICAL). Each S. pneumoniae strain cultured overnight at 37° C. as stationary culture was further subcultured overnight at 37° C. on fresh blood agar medium as stationary culture. After completion of the culture, cells of each pneumococcus strain were collected with a swab, and suspended in physiological saline, and the suspension was adjusted with physiological saline to show absorbance of 0.08 to 0.13 at 625 nm as measured with an absorbance meter (produced by Amersham), and further diluted 200 times with CAMHB containing 5 mass % LHB.
(§8) In Table 11, the amino acid substitution mutations in QRDR of the strains are underlined.

S. pneumoniae KBSP11 = assay: MIC against pneumococcus, CAMHB with 5 mass % LHB; assay type: cell-based, Streptococcus pneumoniae; details: Streptococcus pneumoniae, PRSP
Protocol: as §5, §6, §7, §8

[2] = Staphylococcus aureus, ATCC 6538P / FDA209P / MSSA, read-out: MIC

| Molecule | MIC [1] [µg/mL] | MIC ratio (Mu50 MIC/FDA209P MIC) (S. aureus Mu50) | MIC (S. aureus Mu50) [µg/mL] | MIC [1, 2] [µg/mL] | MIC (S. aureus Mu50; Staphylococcus aureus, MRSA) [µg/mL] | MIC (E. coli strain 1708) [µg/mL] | MIC (E. coli strain 1709) [µg/mL] | further results |
| --- | --- | --- | --- | --- | --- | --- | --- | --- |
| 9-(hydroxyphenyl)-6-methyloxazolo[5,4,3-ij]quinolin-4(2H)-one [J-2.1.1] | 32 | 0.5 | 16 | – | – | – | – | – |
| O=c1cc(CO)c2ccc(-c3ccc(O)cc3)c3c2n1CO3 [J-2.1.2, 6-(hydroxymethyl)-9-(4-hydroxyphenyl)oxazolo[5,4,3-ij]quinolin-4(2H)-one] | – | 0.125 | – | 128 (≈ 433 µM) | 16 (≈ 54.2 µM) | – | – | – |
| Cn1c(=O)cc(CO)c2ccc3c(c21)OCO3 [J-103, 6-(hydroxymethyl)-9-methyl-9-hydro-2H-1,3-dioxoleno[4,5-h]quinolin-8-one] | 128 (≈ 549 µM) | 0.125 | 16 (≈ 68.6 µM) | – | – | – | – | – |
| O=c1cc(CO)c2ccc(-c3ccc(O)cc3)cc2n1C1CC1 [J-121Cp, 1-cyclopropyl-4-hydroxymethyl-7-(4-hydroxy-phenyl)-1H-quinolin-2-one] | – | 0.5 | – | 1 (≈ 3.25 µM) | 0.5 (≈ 1.63 µM) | – | – | – |
| Cc1cc(=O)n(C)c2cc(-c3ccc(O)cc3)ccc12 [J-121Me] | – | 0.0313 | – | 128 (≈ 482 µM) | 4 (≈ 15.1 µM) | – | – | – |
| CC(=O)N1COc2c1ccc1c(CO)cc(=O)n(C)c21 [J-125a, 3-acetyl-6-(hydroxymethyl)-9-methyl-8-oxo 9-hydro-2H-1,3-oxazolino[4,5-h]quinoline] | 128 (≈ 467 µM) | 0.125 | 16 (≈ 58.3 µM) | – | – | – | – | – |
| Cn1c(=O)cc(CO)c2cc(F)c(-c3ccc(O)cc3)cc21 [J-131, 6-fluoro-4-(hydroxymethyl)-7-(4-hydroxyphenyl)-1-methylhydroquinolin-2-one] | 16 (≈ 53.5 µM) | 0.25 | 4 (≈ 13.4 µM) | – | – | – | – | – |
| CC(=O)OCc1cc(=O)n(C2CC2)c2cc(-c3ccc(O)cc3)c(F)cc12 [J-131ACp, [1-cyclopropyl-6-fluoro-7-(4-hydroxyphenyl)-2-oxo-4-hydroquinolyl]methyl.acetate] | – | 0.0625 | – | 64 | 4 | 128 | 128 | – |
| CCn1c(=O)cc(CO)c2cc(F)c(-c3ccc(O)cc3)cc21 [J-131E, 1-ethyl-6-fluoro-4-(hydroxymethyl)-7-(4-hydroxyphenyl)hydroquinolin-2-one] | 2 (≈ 6.38 µM) | 0.25 | 0.5 (≈ 1.6 µM) | – | – | – | – | – |
| Cn1c(=O)cc(CO)c2cc(F)c(-c3ccc(N)cc3)cc21 [J-132, 7-(4-aminophenyl)-6-fluoro-4-(hydroxymethyl)-1-methylhydroquinolin-2-one] | 128 (≈ 429 µM) | 0.0625 | 8 (≈ 26.8 µM) | – | – | – | – | – |
| Nc1ccc(-c2cc3c(cc2F)c(COC(=O)CC(=O)O)cc(=O)n3C2CC2)cc1 [J-135, 2-({[7-(4-aminophenyl)-1-cyclopropyl-6-fluoro-2-oxo-4-hydroquinolyl]methyl}oxycarbonyl)acetic acid] | 8 (≈ 19.5 µM) | 1 | 8 (≈ 19.5 µM) | – | – | – | – | – |
| Nc1ccc(-c2cc3c(cc2F)c(COC(=O)CCC(=O)O)cc(=O)n3C2CC2)cc1 [J-136, 3-({[7-(4-aminophenyl)-1-cyclopropyl-6-fluoro-2-oxo-4-hydroquinolyl]methyl}oxycarbonyl)propanoic acid] | 32 (≈ 75.4 µM) | 0.25 | 8 (≈ 18.8 µM) | – | – | – | – | – |
| CCC(=O)OCc1cc(=O)n(C2CC2)c2cc(-c3ccc(N)cc3)c(F)cc12 [J-138, [7-(4-aminophenyl)-1-cyclopropyl-6-fluoro-2-oxo-4-hydroquinolyl]methyl propanoate] | 2 (≈ 5.26 µM) | 1 | 2 (≈ 5.26 µM) | – | – | – | – | – |
| Cc1cc2c(CO)cc(=O)n(C3CC3)c2cc1-c1ccc(O)cc1 [J-140, 1-cyclopropyl-4-(hydroxymethyl)-7-(4-hydroxyphenyl)-6-methylhydroquinolin-2-one] | 1 (≈ 3.11 µM) | 0.25 | 0.25 (≈ 0.778 µM) | – | – | – | – | – |
| CC(O)c1cc(=O)n(C2CC2)c2cc(-c3ccc4c(c3)CNC4C)c(F)cc12 (stereo not drawn) [J-144M] | – | – | – | 0.5 (≈ 1.32 µM) | 4 (≈ 10.6 µM) | 128 (≈ 338 µM) | 4 (≈ 10.6 µM) | MIC (E. faecalis 36-15722): 2 µg/mL (≈ 5.28 µM); MIC (E. faecalis NCTC12201): 1 µg/mL (≈ 2.64 µM) |
| CN1CCN(c2cc3c(cc2F)c(CO)cc(=O)n3C2CC2)CC1 [J-146, 1-cyclopropyl-6-fluoro-4-(hydroxymethyl)-7-(4-methylpiperazin-1-yl)quinolin-2(1H)-one] | – | 1 | – | 16 (≈ 48.3 µM) | 16 (≈ 48.3 µM) | – | – | – |
| O=c1cc(CO)c2cc(F)c(N3CCC(O)CC3)cc2n1C1CC1 [J-147, 1-cyclopropyl-6-fluoro-4-(hydroxymethyl)-7-(4-hydroxypiperidin-1-yl)quinolin-2(1H)-one] | – | 0.5 | – | 32 (≈ 96.3 µM) | 16 (≈ 48.1 µM) | – | – | – |
| C[C@H]1COc2c(-c3ccc(O)cc3)c(F)cc3c(CO)cc(=O)n1c23 [J-149A] | – | – | – | 0.25 (≈ 0.732 µM) | 0.5 (≈ 1.46 µM) | 128 (≈ 375 µM) | 16 (≈ 46.9 µM) | – |
| Cc1cc(=O)n2c3c(c(-c4ccc(O)cc4)c(F)cc13)OCC2C (stereo not drawn) [J-149d] | – | – | – | 1 (≈ 3.07 µM) | 0.5 (≈ 1.54 µM) | 128 (≈ 393 µM) | 128 (≈ 393 µM) | – |
| CCc1cc(=O)n(C2CC2)c2cc(-c3ccc(O)cc3)c(F)cc12 [J-150, 1-cyclopropyl-4-ethyl-6-fluoro-7-(4-hydroxyphenyl)hydroquinolin-2-one] | 4 (≈ 12.4 µM) | 0.0625 | 0.25 (≈ 0.773 µM) | – | – | – | – | – |
| O=c1cc(CO)c2cc(Cl)c(-c3ccc(O)cc3)cc2n1C1CC1 [J-152] | – | – | – | 1 (≈ 2.93 µM) | 0.25 (≈ 0.731 µM) | 128 (≈ 374 µM) | 128 (≈ 374 µM) | – |
| COc1c(-c2ccc(O)cc2)ccc2c(CO)cc(=O)n(C3CC3)c12 [J-157, 1-cyclopropyl-8-methoxyl-4-(hydroxymethyl)-7-(4-hydroxyphenyl)hydroquinolin-2-one] | 4 (≈ 11.9 µM) | 0.5 | 2 (≈ 5.93 µM) | – | – | – | – | – |
| O=c1cc(O)c2ccc(-c3ccc(O)cc3)c(OC(F)F)c2n1C1CC1 [J-158] | – | – | – | 8 (≈ 22.3 µM) | 4 (≈ 11.1 µM) | 128 (≈ 356 µM) | 128 (≈ 356 µM) | – |
| CNc1ncc(-c2ccc3c(CO)cc(=O)n(C4CC4)c3c2)cc1C [J-165] | – | – | – | 4 (≈ 11.9 µM) | 8 (≈ 23.9 µM) | 128 (≈ 382 µM) | 128 (≈ 382 µM) | – |
| O=C(O)c1c(CO)c2cc(F)c(-c3ccc(O)cc3)cc2n(C2CC2)c1=O [J-169] | – | – | – | 8 (≈ 21.7 µM) | 8 (≈ 21.7 µM) | 128 (≈ 347 µM) | 16 (≈ 43.3 µM) | – |
| NC(=O)c1cc(=O)n(C2CC2)c2cc(-c3ccc(O)cc3)c(F)cc12 [J-173] | – | – | – | 8 (≈ 23.6 µM) | 2 (≈ 5.91 µM) | 128 (≈ 378 µM) | 128 (≈ 378 µM) | MIC (S. pneumoniae BCLSP37): 8 µg/mL (≈ 23.6 µM); MIC (S. pneumoniae KBSP11): 8 µg/mL (≈ 23.6 µM) |
| COCc1cc(=O)n(C2CC2)c2cc(-c3ccc(O)cc3)c(F)cc12 [J-175] | – | – | – | 1 (≈ 2.95 µM) | 0.5 (≈ 1.47 µM) | 128 (≈ 377 µM) | 128 (≈ 377 µM) | MIC (S. pneumoniae BCLSP37): 8 µg/mL (≈ 23.6 µM); MIC (S. pneumoniae KBSP11): 32 µg/mL (≈ 94.3 µM) |
| Nc1c(CO)c2cc(F)c(-c3ccc(O)cc3)cc2n(C2CC2)c1=O [J-179] | – | – | – | 0.5 (≈ 1.47 µM) | 1 (≈ 2.94 µM) | 128 (≈ 376 µM) | 128 (≈ 376 µM) | – |
